# Experimental data taken from patent US6344460B1, “Propynyl uracils” (Lonza Inc., priority 2000, dated 2002).
# Experiments:
# [1] = system: Gloephyllium trabeum (a brown rot, ATCC 11539); conditions: G. trabeum; for IC50 (ppm): minimum concentration for 50% zone of inhibition, 9 days contact
# Protocol: (§1) Prod J. 45(1):86-9 (1995), was performed to determine the minimum concentration of uracil necessary to achieve a 50% zone of inhibition over 9 days of contact time.
# [2] = system: Postia placenta (a brown rot, ATCC 11538); conditions: P. placenta; for IC50 (ppm): minimum concentration for 50% zone of inhibition, 9 days contact
# Protocol: as §1
# [3] = system: Trametes versicolor (a white rot; ATCC 42462); conditions: T. versicolor; for IC50 (ppm): minimum concentration for 50% zone of inhibition, 9 days contact
# Protocol: as §1
# [4] = system: Aspergillus niger ATCC #16404; experiment: Minimum inhibitory concentration by zone of inhibition assay; type: cell-based; conditions: 5 days contact, Day-Engley neutralizing media
# Excerpt: A. niger ATCC #16404 was contacted with each sulfone for 5 days in a Day-Engley neutralizing media.
# [5] = system: Chaetomium globosum (a soft rot, ATCC 6205); conditions: C. globosum; minimum concentration for 50% zone of inhibition, 9 days contact
# Protocol: as §1
compound,measurement,setting,value
O=c1c(Cl)cn(CC#CI)c(=O)n1CC#CI,concentration at which a total kill was observed,[1],no more than 50 ppm
same,IC50 (ppm),[1],3.22 ppm
same,concentration at which a total kill was observed,[2],no more than 50 ppm
same,IC50 (ppm),[2],<5.0 ppm
same,concentration at which a total kill was observed,[3],no more than 50 ppm
same,IC50 (ppm),[3],6.12 ppm
same,5 Day Minimum Inhibitory Concentration Aspergillus niger,[4],10 to 30 mg/L
same,IC50 (ppm),[5],3.22 ppm
"Cc1cn(CC#CI)c(=O)n(CC#CI)c1=O [1N,3N-Bis(3-iodo-2-propynyl)-5-methyluracil]",5 Day Minimum Inhibitory Concentration Aspergillus niger,[4],10 to 30 mg/L
"O=c1ccn(CC#CI)c(=O)n1CC#CI [1N, 3N-bis(3-iodo-2-propynyl)-uracil, 1N,3N-Bis(3-iodo-2-propynyl)-uracil]",5 Day Minimum Inhibitory Concentration Aspergillus niger,[4],3 to 10 mg/L
O=c1c(F)cn(CC#CI)c(=O)n1-c1ccco1 [1N-(3-iodo-2-propynyl)-3N-(2-furanyl)-5-fluorouracil],5 Day Minimum Inhibitory Concentration Aspergillus niger,[4],30 to 100 mg/L
O=c1ccn(CC#CI)c(=O)n1C1O[C@H](CO)[C@@H](O)[C@H]1O (stereo partly drawn) [1N-(3-iodo-2-propynyl)-3N-(D-1-ribose)-uracil],5 Day Minimum Inhibitory Concentration Aspergillus niger,[4],100 to 300 mg/L
O=c1[nH]cc([N+](=O)[O-])c(=O)n1CC#CI [3N-(3-iodo-2-propynyl)-5-nitrouracil],5 Day Minimum Inhibitory Concentration Aspergillus niger,[4],30 to 100 mg/L
"CCCCCCCCCC[N+](C)(C)CCCCCCCCCC.[Cl-] [didecydimethyl ammonium chloride, didecyldimethyl ammonium chloride, reference compound]",IC50 (ppm),[1],6.45 ppm
same,IC50 (ppm),[2],5.6 ppm
same,IC50 (ppm),[3],53.9 ppm
same,IC50 (ppm),[5],62.9 ppm
